The source of these data is publication PMC6934184, “Selective DNA-PKcs inhibition extends the therapeutic index of localized radiotherapy and chemotherapy” (The Journal of Clinical Investigation, 2019).

This experiment addresses T1, MAP2K6 (MKK6) S207E T211E (Homo sapiens, UniProt P52564, S207E/T211E).
T1 construct: purchased Thermo Fisher Scientific (Life Technologies) SelectScreen
In words: SelectScreen LanthaScreen. The format is binding. To be noted: read-out: % displacement. The method in brief:
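Percent values come from Thermo SelectScreen profiling of NU5455, combining activity and binding assays. CSF1R was run in Z'LYTE format at Km app ATP, and CAMK1 in Adapta format with ATP listed at 10.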

T1 sequence (P52564 whole entry S207E/T211E): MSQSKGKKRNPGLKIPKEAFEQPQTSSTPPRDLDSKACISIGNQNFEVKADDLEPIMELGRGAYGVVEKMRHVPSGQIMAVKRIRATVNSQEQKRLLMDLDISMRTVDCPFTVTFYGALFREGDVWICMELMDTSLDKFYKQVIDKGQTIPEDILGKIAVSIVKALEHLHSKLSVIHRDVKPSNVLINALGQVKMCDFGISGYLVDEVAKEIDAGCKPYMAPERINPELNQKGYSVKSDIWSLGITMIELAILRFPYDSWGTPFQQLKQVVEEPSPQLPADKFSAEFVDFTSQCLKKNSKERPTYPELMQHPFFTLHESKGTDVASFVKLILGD

`CN(C(=O)CN1CCOCC1)c1ccc2sc3c(-c4cccc5c(=O)cc(N6CC7CCC(C6)O7)oc45)cccc3c2c1` [NU5455]: the inhibition at 1 µM was -4.9%.
